US20230219956A1 (BETTA PHARMACEUTICALS CO.,LTD, priority 2019, published 2023)

What was measured:
H358 cells = experiment: Cell proliferation assay, H358 cells (Cell-titer Glo); format: cell-based; settings: Homo sapiens, NCI-H358, 96 h incubation
Protocol: (§1) Pave the H358 cells on a 96-well ultra-low adsorption plate with 2000 cells and 190 μL/well. After incubating overnight, compound solutions of gradient concentration was prepared, and added 10 μL of DMSO solution of the test compound of each concentration to the cells of each well. The final concentration of the compound is 10000, 3333.3, 1111.1, 370.4, 123.5, 41.2, 13.7, 4.6, 1.5, 0 nM (the final concentration of DMSO is 0.25%). Incubated for 96 h at 37° C. and 5% CO2. 50 μL of Cell-titer Glo working solution was added to each well, shaked and mixed, and incubated at room temperature for 10 minutes. The multi-functional microplate reader read the luminescence value, and converted the luminescence value reading into inhibition percentage.
(§2) Inhibition percentage=(maximum value−reading)/(maximum value−minimum value)*100.
(§3) The “maximum value” was the DMSO control, the “minimum value” indicates the cell-free control group.
(§4) Graphpad Prism software was used to perform curve fitting and obtain IC50 value.
Refer to table 3 for the IC50 data of some compounds in the Examples for inhibiting H358 cells.

MIA-PACA-2 cells = experiment: Cell proliferation assay, MIA-PACA-2 cells (Cell-titer Glo); format: cell-based; settings: Homo sapiens, 96 h incubation
Protocol: as §1, with “the MIA-PACA-2” for “the H358”, “cells into” for “cells on”, “plate at 600 cells, 160” for “plate with 2000 cells and 190”, “added 40” for “added 10”, “10000, 2000, 400, 80, 16, 3.2, 0.64, 0.12, 0.025,” for “10000, 3333.3, 1111.1, 370.4, 123.5, 41.2, 13.7, 4.6, 1.5,”
as §2, §3, §4
Refer to Table 3 for the IC50 data of some compounds in the examples inhibiting MIA-PACA-2 cells.

Row | SMILES | IC50 (H358 cells) | IC50 (MIA-PACA-2 cells)
1 | C=CC(=O)N1CC2(CCN(c3nc(C4CCN(CC(C)(C)O)CC4)nc4c(OCC(F)(F)F)c(-c5c(C)ccc6[nH]ncc56)c(CC)cc34)CC2)C1 [Example 36, 1-(7-(6-ethyl-2-(1-(2-hydroxy-2-methylpropyl)piperidin-4-yl)-7-(5-methyl-1H-indazol-4-yl)-8-(2,2,2-trifluoroethoxy)quinazolin-4-yl)-2,7-diazaspiro[3.5]nonan-2-yl) prop-2-en-1-one] | 10.6 nM | 10.1 nM
2 | C=CC(=O)N1CC2(CCN(c3nc(C4CCNCC4)nc4c(OCC(F)(F)F)c(-c5c(C)ccc6[nH]ncc56)c(C=C)cc34)CC2)C1 [Example 63, 1-(7-(7-(5-methyl-1H-indazol-4-yl)-2-(piperidin-4-yl)-8-(2,2,2-trifluoroethoxy)-6-vinylquinazoline-4-yl)-2,7-diazaspiro[3.5]nonan-2-yl)prop-2-en-1-one] | 187 nM | 406 nM
3 | C=CC(=O)N1CC2(CCN(c3nc(C4CCN(C)CC4)nc4c(OC(C)C)c(-c5c(C)ccc6[nH]ncc56)c(CC)cc34)CC2)C1 [Example 27] | 392 nM | 388 nM
4 | C=CC(=O)N1CC2(CCN(c3nc(C4CCN(C)CC4)nc4c(OCC(F)F)c(-c5c(C)ccc6[nH]ncc56)c(C5CC5)cc34)CC2)C1 [Example 24, 1-(7-(6-cyclopropyl-8-(2,2-difluoroethoxy)-7-(5-methyl-1H-indazol-4-yl)-2-(1-methylpiperidin-4-yl)quinazolin-4-yl)-2,7-diazaspiro[3.5]nonan-2-yl)prop-2-en-1-one] | 17.7 nM | 14.5 nM
5 | C=CC(=O)N1CC2(CCN(c3nc(C4CCN(C)CC4)nc4c(OCC(F)F)c(-c5c(C)ccc6[nH]ncc56)c(Cl)cc34)CC2)C1 [Example 34] | 39 nM | 36.9 nM
6 | C=CC(=O)N1CC2(C1)CN(c1nc(C3CCN(C)CC3)nc3c(OCC(F)(F)F)c(-c4c(C)ccc5[nH]ncc45)c(C=C)cc13)C2 [Example 50, 1-(6-(7-(5-methyl-1H-indazol-4-yl)-2-(1-methylpiperidin-4-yl)-8-(2,2,2-trifluoroethoxy)-6-vinylquinazolin-4-yl)-2,6-diazaspiro[3.3]heptane-2-yl)prop-2-en-1-one] | 243 nM | 278 nM
7 | C=CC(=O)N1CC2(CCN(c3nc(C4CCN(C)CC4)nc4c(OCC(C)(C)O)c(-c5c(C)ccc6[nH]ncc56)c(C=C)cc34)CC2)C1 [Example 47, 1-(7-(8-(2-hydroxy-2-methylpropoxy)-7-(5-methyl-1H-indazol-4-yl)-2-(1-methylpiperidin-4-yl)-6-vinylquinazoline-4-yl)-2,7-diazaspiro[3.5]nonan-2-yl)prop-2-en-1-one] | 39 nM | 47.7 nM
8 | C=CC(=O)N1CC2(CCN(c3nc(C4CCN(C)CC4)nc4c(OCC(F)(F)F)c(-c5ccc6[nH]ncc6c5)c(C5CC5)cc34)CC2)C1 [Example 17] | 8440 nM | 1540 nM
9 | C=CC(=O)N1CC2(CCN(c3nc(C4CN(CC(C)(C)O)C4)nc4c(OCC(F)(F)F)c(-c5c(C)ccc6[nH]ncc56)c(CC)cc34)CC2)C1 [Example 38, 1-(7-(6-ethyl-2-(1-(2-hydroxy-2-methylpropyl)azetidin-3-yl)-7-(5-methyl-1H-indazol-4-yl)-8-(2,2,2-trifluoroethoxy)quinazolin-4-yl)-2,7-diazaspiro[3.5]nonan 2-yl) prop-2-en-1-one] | 59.3 nM | 74.2 nM
10 | C=CC(=O)N1CC2(CCN(c3nc(C4CCN(C)CC4)nc4c(OCC(F)(F)F)c(-c5c(C)ncc6[nH]ncc56)c(C=C)cc34)CC2)C1 [Example 56, 1-(7-(7-(5-methyl-1H-pyrazolo [3,4-c]pyridin-4-yl)-2-(1-methylpiperidine-4-yl)-8-(2,2,2-trifluoroethoxy)-6-vinylquinazolin-4-yl)-2,7-diazaspiro[3.5]nonan-2-yl) prop-2-en-1-one] | 2520 nM | 2580 nM
11 | C=CC(=O)N1CC2(CCN(c3nc(C4CCN(CC(C)(C)O)CC4)nc4c(OCC(F)(F)F)c(-c5c(C)ccc6[nH]ncc56)c(C=C)cc34)CC2)C1 [Example 60] | 4.1 nM | 4 nM
12 | C=CC(=O)N1CC2(CCN(c3nc(C4CCN(CCS(C)(=O)=O)CC4)nc4c(OCC(F)(F)F)c(-c5c(C)ccc6[nH]ncc56)c(C=C)cc34)CC2)C1 [Example 57, 1-(7-(7-(5-methyl-1H-indazol-4-yl)-2-(1-(2-(methylsulfonyl)ethyl)piperidine-4-yl)-8-(2,2,2-trifluoroethoxy)-6-vinylquinazolin-4-yl)-2,7-diazaspiro[3.5]nonan-2-yl) prop-2-en-1-one] | 7.3 nM | 6.8 nM

Now from value to compound:

Row | IC50 (H358 cells) | IC50 (MIA-PACA-2 cells) | SMILES
13 | 4.9 nM | 8 nM | C=CC(=O)N1CC2(CCN(c3nc(C4CCN(CCO)CC4)nc4c(OCC(F)(F)F)c(-c5c(C)ccc6[nH]ncc56)c(C=C)cc34)CC2)C1 [Example 61, 1-(7-(2-(1-(2-(hydroxyethyl))piperidin-4-yl)-7-(5-methyl-1H-indazole-4-yl)-8-(2,2,2-trifluoroethoxy)-6-vinylquinazolin-4-yl)-2,7-diazarospiro [3.5]nonan-2-yl) propyl-2-en-1-one]
14 | 85.8 nM | 208 nM | C=Cc1cc2c(N3CCC4(CC3)CN(C(=O)C(=C)F)C4)nc(C3CCN(CCC#N)CC3)nc2c(OCC(F)(F)F)c1-c1c(C)ccc2[nH]ncc12 [Example 86, 3-(4-(4-(2-(2-Fluoroacryloyl)-2,7-diazspiro [3.5]nonan-7-yl)-7-(5-methyl-1H-indazole-4-yl)-8-(2,2,2-trifluoroethoxy)-6-vinylquinazolin-2-yl)piperidin-1-yl) propionitrile]
15 | 4.6 nM | 6.9 nM | C=CC(=O)N1CC2(CCN(c3nc(C4CCN(C5CCC(C#N)CC5)CC4)nc4c(OCC(F)(F)F)c(-c5c(C)ccc6[nH]ncc56)c(C=C)cc34)CC2)C1 (stereo not drawn) [Example 67, 4-(4-(4-(2-acryloyl-2,7-diazazospiro [3.5]nonan-7-yl)-7-(5-methyl-1H-indazole-4-yl)-8-(2,2,2-trifluoroethoxy)-6-vinylquinazolin-2-yl)piperidin-1-yl) cyclohexane-1-methylnitrile]
16 | 7.6 nM | 12.5 nM | C=CC(=O)N1CC2(CCN(c3nc(C4CCN(C5CCN(C(=O)OCC)CC5)CC4)nc4c(OCC(F)(F)F)c(-c5c(C)ccc6[nH]ncc56)c(C=C)cc34)CC2)C1 [Example 82, Ethyl 4-(4-(2-acryloyl-2,7-diazspiro [3.5]nonan-7-yl)-7-(5-methyl-1H-indazole-4-yl)-8-(2,2,2-trifluoroethoxy) 6-vinylquinazolin-2-yl)-[1,4-bipiperidine]-1′-carboxylate]
17 | 2.6 nM | 3.6 nM | C=CC(=O)N1CC2(CCN(c3nc(C4CCN(CCF)CC4)nc4c(OCC(F)(F)F)c(-c5c(C)ccc6[nH]ncc56)c(C=C)cc34)CC2)C1 [Example 75, 1-(7-(2-(1-(2-(fluoroethyl))piperidin-4-yl)-7-(5-methyl-1H-indazole-4-yl)-8-(2,2,2-trifluoroethoxy)-6-vinylquinazolin-4-yl)-2,7-diazarospiro [3.5]nonan-2-yl) propyl-2-en-1-one]
18 | 3.4 nM | 3.7 nM | C=CC(=O)N1CC2(CCN(c3nc(C4CCN(C5CCC5)CC4)nc4c(OCC(F)(F)F)c(-c5c(C)ccc6[nH]ncc56)c(C=C)cc34)CC2)C1 [Example 69, 1-(7-(2-(1-cyclobutylpiperidin-4-yl)-7-(5-methyl-1H-indazol-4-yl)-8-(2,2,2-trifluoroethoxy)-6-vinylquinazolin-4-yl)-2,7-diazspiro [3.5]nonan-2-yl) propyl-2-en-1-one]
19 | 37.6 nM | 33.7 nM | C=CC(=O)N1CC2(CCN(c3nc(C4CCN(Cc5ccccc5)CC4)nc4c(OCC(F)(F)F)c(-c5c(C)ccc6[nH]ncc56)c(C=C)cc34)CC2)C1 [Example 77, 1-(7-(2-(1-benzylpiperidin-4-yl)-7-(5-methyl-1H-indazol-4-yl)-8-(2,2,2-trifluoroethoxy)-6-vinylquinazolin-4-yl)-2,7-diazarospiro [3.5]nonan-2-yl) propyl-2-en-1-one]
20 | 2.7 nM | 3.5 nM | C=CC(=O)N1CC2(CCN(c3nc(C4CCN(C5CCOC5)CC4)nc4c(OCC(F)(F)F)c(-c5c(C)ccc6[nH]ncc56)c(C=C)cc34)CC2)C1 (stereo not drawn) [Example 79, 1-(7-(7-(5-methyl-1H-indazol-4-yl)-2-(1-(tetrahydrofuran-3-yl)piperidin-4-yl)-8-(2,2,2-trifluoroethoxy)-6-vinylquinazolin-4-yl)-2,7-diazspiro [3.5]nonan-2-yl) propyl-2-en-1-one]
21 | 11.5 nM | 8.5 nM | C=CC(=O)N1CC2(CCN(c3nc(C4CCN(C5CCN(C)CC5)CC4)nc4c(OCC(F)(F)F)c(-c5c(C)ccc6[nH]ncc56)c(C=C)cc34)CC2)C1 [Example 66, 1-(7-(7-(5-methyl-1H-indazol-4-yl)-2-(1′-methyl-[1,4-bipiperidine]-4-yl)-8-(2,2,2-trifluoroethoxy)-6-vinylquinazolin-4-yl)-2,7-diazspiro [3.5]nonan-2-yl) propyl-2-en-1-one]
